Assay results reported in US20170121268A1, “PPAR MODULATORS” (THE GOVERNING COUNCIL OF THE UNIVERSITY OF TORONTO, priority 2014, published 2017).

Legend:
GAL4-hPPARγ = target: T1, GAL4-hPPARγ (Homo sapiens, UniProt P37231); assay: GAL4-hPPARγ-UAS-luciferase reporter assay in transiently transfected HEK293 cells; format: cell-based; details: for PPARγ agonist profile compared to rosiglitazone control / EC50: dose-response, HEK293 cells; for EC50: read-out: EC50 for PPARγ; for PPARγ reporter response relative to vehicle: dosed at 50 μM
T1 sequence (P37231 238-505 limits assumed): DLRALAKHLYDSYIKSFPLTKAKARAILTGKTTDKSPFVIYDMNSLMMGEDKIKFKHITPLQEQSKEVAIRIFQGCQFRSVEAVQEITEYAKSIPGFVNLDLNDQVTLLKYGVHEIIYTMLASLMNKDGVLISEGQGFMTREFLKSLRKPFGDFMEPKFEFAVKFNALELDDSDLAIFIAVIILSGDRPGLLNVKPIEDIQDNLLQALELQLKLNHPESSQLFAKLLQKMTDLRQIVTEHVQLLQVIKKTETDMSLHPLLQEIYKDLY
Description: (§1) HEK293 cells were maintained in Dulbecco's modified Eagle's medium supplemented with 10% fetal bovine serum. Cell transfection was performed in media containing 10% charcoal-stripped fetal bovine serum using calcium phosphate in 96-well plates. The total amount of plasmid DNA (150 ng/well) included 50 ng UAS-Iuc reporter, 20 ng β-galactosidase, 15 ng nuclear receptor (GAL4-hPPARα and GAL4-hPPARγ) and pGEM filler plasmid. Ligands were added at 6 to 8 hours post transfection. Cells harvested 14 to 16 hours later were assayed for luciferase and β-galactosidase activity.

GAL4-hPPARα = target: T2, GAL4-hPPARα (Homo sapiens, UniProt Q07869); assay: GAL4-hPPARα-UAS-luciferase reporter assay in transiently transfected HEK293 cells; format: cell-based; details: for PPARα agonist profile compared to the full agonist GW7647 / EC50: dose-response, HEK293 cells; for EC50: read-out: EC50 for PPARα; for PPARα reporter response relative to vehicle: dosed at 50 μM
T2 sequence (Q07869 200-468 limits assumed): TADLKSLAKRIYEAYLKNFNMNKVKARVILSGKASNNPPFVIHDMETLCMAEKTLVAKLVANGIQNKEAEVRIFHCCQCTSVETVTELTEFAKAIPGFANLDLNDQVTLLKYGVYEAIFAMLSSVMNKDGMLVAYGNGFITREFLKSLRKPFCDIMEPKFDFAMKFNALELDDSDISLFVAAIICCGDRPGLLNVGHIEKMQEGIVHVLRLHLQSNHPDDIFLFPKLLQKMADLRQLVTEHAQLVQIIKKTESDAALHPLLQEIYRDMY
Description: as §1

[1] = test system: PPARα target genes in primary mouse hepatocytes; assay: Primary hepatocyte assay, expression of PPARα target genes (QPCR); format: cell-based; details: 50 μM, 24 hrs
Description: Mouse primary hepatocytes were isolated by collagenase perfusion as previously described (Patel et al. 2011). Cells were plated onto type I collagen-coated plates at 0.5×10^6 cells per well for 2 hours in attachment media (William's E Media, 10% charcoal stripped FBS, 1× penicillin/streptomycin, and 10 nM insulin), and then switched to overnight media (M199 Media, 5% charcoal stripped FBS, 1× penicillin/streptomycin, and 1 nM insulin). Ligand treatments were carried out on the following day in M199 media without FBS. Cells were harvested 24 hrs later for RNA extraction.
(§2) Total RNA was extracted from cells using RNA STAT-60 (Tel-Test Inc.), followed by DNase I treatment (RNase-free; Roche), and reverse transcribed into cDNA with random hexamers using the High Capacity Reverse Transcription System (ABI; Applied Biosystems). Real-time quantitative PCR (QPCR) analysis was performed on an ABI 7900 in 384-well plates using 2×SYBR Green PCR Master Mix (ABI). Relative mRNA levels were calculated using the comparative Ct method normalized to cyclophilin mRNA.

[2] = test system: PPARγ target genes in 3T3-L1 pre-adipocytes; assay: 3T3-L1 differentiation assay, expression of PPARγ target genes (QPCR); format: cell-based; details: 25 μM, day 11
Description: (§3) 3T3-L1 cells were maintained in Dulbecco's modified Eagle's medium supplemented with 10% fetal calf serum. Adipocyte differentiation was induced in two-days postconfluent cells by treating the cells with 100 μg/ml isobutylmethylxanthine, 1 μM dexamethasone, and 5 μg/ml insulin with 10% FBS in DMEM (Day 0). Rosiglitazone and LDT ligands were added at the start of differentiation. Two days later, cells were switched to the medium containing 5 μg/ml insulin with 10% FBS. After an additional 72 hrs, cells were switched to maintenance media containing 10% FBS in DMEM. Thereafter, the media was changed every 2 days. Cells were harvested on day 11 for RNA expression and Oil Red O was used to estimate lipid accumulation.
as §2

3T3-L1 cells = assay: Oil Red O staining of 3T3-L1 adipocytes after 11 days of differentiation; format: cell-based; details: 25 μM
Description: as §3
Following 11 days of differentiation, cells were washed with PBS twice and fixed in 10% neutral buffered formalin (Sigma) for 1 h at room temperature, followed by two ddH2O and two washes with 60% isopropanol. Cells were then stained with 0.6% (w/v) Oil Red O solution (60% isopropanol, 40% water) for 10 min at room temperature, followed by five washes with ddH2O to remove unbound dye and images were taken with Leica M205 FA microscope.

[3] = women on drug; cited from earlier work

| Compound | PPARα agonist profile compared to the full agonist GW7647 (GAL4-hPPARα) | EC50 (GAL4-hPPARα) | PPARγ agonist profile compared to rosiglitazone control (GAL4-hPPARγ) | EC50 (GAL4-hPPARγ) | GLUT4 expression [2] | adipocyte differentiation by Oil red O staining (3T3-L1 cells) | also measured |
| --- | --- | --- | --- | --- | --- | --- | --- |
| CCCCCCCCCCCCCCCc1cccc(OCC(=O)OCC)c1 [LDT15] | – | 3.5 µM | partial PPARγ agonists | 42 µM | augmented | less adipogenic compared to Rosi | CD36 expression (hepatocytes) [1]: significantly increased; FABP1 expression [1]: significantly increased; Fgf21 expression [1]: upregulation; PDK4 expression [1]: upregulated; UCP2 expression [2]: upregulated; adiponectin expression [2]: induced to a similar degree as Rosi |
| CCOC(=O)COc1cccc(CCCCCCCCO)c1 [LDT296, Ethyl 2-(3-(8-hydroxyoctyl)phenoxy)acetate] | less potent partial PPARα agonists | – | less potent, full agonist profile | – | – | – | – |
| CCCCCCCCCCCCCCCc1cccc(OC(C)=O)c1C(=O)O [LDT13] | – | 7 µM | partial PPARγ agonists | 12 µM | augmented | – | – |
| CCCCCCCCCCCCCCCc1cccc(OC(C)(C)C(=O)OCC)c1 [LDT408] | – | – | partial PPARγ agonists | – | augmented | less adipogenic compared to Rosi | CD36 expression (hepatocytes) [1]: significantly increased; FABP1 expression [1]: significantly increased; PDK4 expression [1]: upregulated; UCP2 expression [2]: upregulated; adiponectin expression [2]: significantly increased |
| CCOC(=O)CCCCCCCc1cccc(OC(C)(C)C(=O)OCC)c1 [LDT481, Ethyl 8-(3-((1-ethoxy-2-methyl-1-oxopropan-2-yl)oxy)phenyl)octanoate] | – | – | – | – | upregulated | able to induce adipocyte differentiation | melting point: 39 to 42 °C |
| CCc1ccc(CCOc2ccc(CC3SC(=O)NC3=O)cc2)nc1 (centres unmarked) [pioglitazone] | – | – | – | – | – | – | rate of distal bone fractures [3]: two-fold increased rate |
| CCCCCCCCCCCCCCCc1cccc(OCC(=O)O)c1 [LDT16] | – | 0.9 µM | full agonist profile | 3.6 µM | – | – | – |
| CN(CCOc1ccc(CC2SC(=O)NC2=O)cc1)c1ccccn1 (centres unmarked) [rosiglitazone] | – | – | – | – | – | – | rate of distal bone fractures [3]: two-fold increased rate |
| CCCCCCCCCCCCCCCc1cccc(OC)c1C(=O)O [LDT30] | – | 32 µM | – | – | – | – | UCP2 expression [2]: upregulated |
| CCCCCCCCCCCCCCCc1cccc(O)c1C(=O)O [LDT11] | – | 9 µM | full agonist profile | 12 µM | augmented | less adipogenic compared to Rosi | adiponectin expression [2]: significantly increased |

Further lines, with some results ahead:

| PPARα agonist profile compared to the full agonist GW7647 (GAL4-hPPARα) | EC50 (GAL4-hPPARα) | PPARγ agonist profile compared to rosiglitazone control (GAL4-hPPARγ) | EC50 (GAL4-hPPARγ) | Compound | GLUT4 expression [2] | adipocyte differentiation by Oil red O staining (3T3-L1 cells) | also measured |
| --- | --- | --- | --- | --- | --- | --- | --- |
| less potent partial PPARα agonists | 1.3 µM | – | – | CCOC(=O)COc1cccc(CCCCCCCC(=O)O)c1 [LDT298, 8-(3-(2-Ethoxy-2-oxoethoxy)phenyl)octanoic acid] | – | – | increase in reporter activity in the PPARγ activation assay (GAL4-hPPARγ; FIG. 5B, dose not given): comparable luciferase activation; increase in activity as compared to Veh in the PPARα activation assay (GAL4-hPPARα; FIG. 5A, dose not given): comparable luciferase activation |
| less potent partial PPARα agonists | 37 µM | full agonist profile | 14 µM | CCOC(=O)C(C)(C)Oc1cccc(CCCCCCCC(=O)O)c1 [LDT478, 8-(3-((1-ethoxy-2-methyl-1-oxopropan-2-yl)oxy)phenil)octanoic acid] | – | – | – |
| – | 0.2 µM | – | – | CCCCCCCCCCCCCCCc1cccc(OC(C)(C)C(=O)O)c1 [LDT409] | augmented | comparable to Rosi | UCP2 expression [2]: upregulated; adiponectin expression [2]: induced to a similar degree as Rosi |
| less potent partial PPARα agonists | 3.9 µM | full agonist profile | 21 µM | CCOC(=O)CCCCCCCc1cccc(OCC(=O)OCC)c1 [LDT480, Ethyl 8-(3-(2-ethoxy-2-oxoethoxy)phenyl)octanoate] | – | – | PPARγ reporter response relative to vehicle (GAL4-hPPARγ): most active; PPARα reporter response relative to vehicle (GAL4-hPPARα): most active |
| less potent partial PPARα agonists | 20 µM | full agonist profile | 14 µM | CC(C)(Oc1cccc(CCCCCCCCO)c1)C(=O)O [LDT477, 2-(3-(8-hydroxyoctyl)phenoxy)-2-methylpropanoic acid] | upregulated | able to induce adipocyte differentiation | PPARγ reporter response relative to vehicle (GAL4-hPPARγ): most active; PPARα reporter response relative to vehicle (GAL4-hPPARα): most active |
